Experimental data from patent US9604947B2, “Substituted 5-imino-1,2,4-thiadiazoles that can be used to treat neurodegenerative diseases” (CONSEJO SUPERIOR DE INVESTIGACIONES CIENTIFICAS (CSIC), priority 2009, dated 2017).
Structures can show the parent of a compound that is named as a salt.

These molecules were tested against T1, PDE7A1 (Homo sapiens, UniProt Q13946) (assay: Determination of PDE7 inhibition (SPA, [3H]cAMP)). Details: 1,2,4-thiadiazoles-5-imino substituted as free bases; read-out: IC50 (PDE7A).
T1 construct: purchased Calbiochem 524751
Format: biochemical
Experimental: PDE-7 inhibition was performed with a commercial kit for the determination of phosphodiesterase activity (GE Healthcare Life Sciences, cat#TRKQ7090).
The compounds to be evaluated were incubated (in concentrations between 0.1 nM and 100 μM) in presence of 0.02 U/well of PDE7A1 (Calbiochem cat#524751) and 0.05 μCi of [^3H] cAMP, for 20 min at 30° C. in the assay buffer of kit (total volume=100 μl).
After this time, 50 μl of a suspension of 20 mg/ml microspheres of SPA of Ytrium silicate were added and was maintained under stirring at room temperature for 60 min. Finally, the plate was settled for 20 min and radioactivity was detected in a Microbeta Trilux reader.
In every assay there were included two points without PDE7A1 (blank) and two points with PDE7A1 without inhibitors (control).
Data Analysis: All the compounds were evaluated firstly at the concentration of 10 μM and the percentage of PDE7A1 inhibition was calculated, according to the following formula (cpm=counts per minute): % Inhibition=((cpm control−cpm sample)×100)/(cpm control−cpm blank assay).
For those compounds with % inhibition values above 45% it was calculated its inhibitory potency (IC50) building the dose-response curve.
The data were adjusted with the software Prism v 2.1 (GraphPad Software) using the non lineal fitting.

T1 sequence (Q13946 whole entry): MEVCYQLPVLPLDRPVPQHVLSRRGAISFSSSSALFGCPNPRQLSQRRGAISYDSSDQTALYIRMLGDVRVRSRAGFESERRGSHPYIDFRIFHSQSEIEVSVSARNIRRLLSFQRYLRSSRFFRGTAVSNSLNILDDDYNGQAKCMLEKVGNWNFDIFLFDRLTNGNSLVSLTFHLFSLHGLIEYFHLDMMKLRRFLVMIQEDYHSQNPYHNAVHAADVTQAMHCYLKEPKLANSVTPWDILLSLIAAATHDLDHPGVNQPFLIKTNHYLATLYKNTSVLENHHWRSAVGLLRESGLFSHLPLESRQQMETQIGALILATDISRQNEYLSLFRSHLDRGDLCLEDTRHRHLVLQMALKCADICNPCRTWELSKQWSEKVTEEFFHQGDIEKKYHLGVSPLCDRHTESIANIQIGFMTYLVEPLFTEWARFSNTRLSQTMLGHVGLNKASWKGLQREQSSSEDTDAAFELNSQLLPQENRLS

IC50 [nM]	SMILES
3520	c1ccc(N=c2nc(-c3ccccc3)n(-c3ccccc3)s2)cc1 [R1=Ph, R2=Ph, R3=Ph (free base), 2,3-Diphenyl-5-phenylimino-2,5-dihydro-1,2,4-thiadiazole]

Same assay, conditions: 1,2,4-thiadiazoles-5-imino substituted as hydrobromides; read-out: IC50 (PDE7A)

SMILES	IC50 [nM]
CCCCCN=c1nc(-c2ccccc2)n(-c2ccccc2)s1 [R1=Ph, R2=Ph, R3=n-Pent (hydrobromide), 5-Pentylimino-2,3-diphenyl-2,5-dihydro-1,2,4-thiadiazole hydrobromide]	1440
c1ccc(N=c2nc(-c3ccccc3)n(-c3ccccc3)s2)cc1 [R1=Ph, R2=Ph, R3=Ph (hydrobromide), 2,3-Diphenyl-5-phenylimino-2,5-dihydro-1,2,4-thiadiazole hydrobromide]	3030
CCCCCN=c1nc(-c2ccc(OC)cc2)n(-c2ccccc2)s1 [3-(4-Methoxyphenyl)-5-pentylimino-2-phenyl-2,5-dihydro-1,2,4-thiadiazole hydrobromide]	810
c1ccc(-c2nc(=NCc3cccnc3)sn2-c2cccc3ccccc23)cc1 [2-(1-Naphthyl)-3-phenyl-5-(3-pyridylmethylimino)-2,5-dihydro-1,2,4-thiadiazole dihydrobromide]	870
c1ccc(-c2nc(=NCCN3CCOCC3)sn2-c2ccccc2)cc1 [5-(2-Morpholinethylimino)-2,3-diphenyl-2,5-dihydro-1,2,4-thiadiazole dihydrobromide]	1590
OCCN=c1nc(-c2ccccc2)n(-c2cccc3ccccc23)s1 [5-(2-Hydroxyethylimino)-2-(1-naphthyl)-3-phenyl-2,5-dihydro-1,2,4-thiadiazole hydrobromide]	2200

Results, then the molecule that gave them:

IC50 [nM]	SMILES
1080	c1ccc(-n2sc(=NCc3cccnc3)nc2-c2cccc3ccccc23)cc1 [3-(1-Naphthyl)-2-phenyl-5-(3-pyridylmethylimino)-2,5-dihydro-1,2,4-thiadiazole dihydrobromide]
1640	c1ccc(-c2nc(=NC3CCCCC3)sn2-c2ccccc2)cc1 [R1=Ph, R2=Ph, R3=Cy (hydrobromide)]
790	CCOC(=O)CN=c1nc(-c2ccccc2)n(-c2ccc([N+](=O)[O-])cc2)s1 [5-Ethoxycarbonylmethylimino-2-(4-nitrophenyl)-3-phenyl-2,5-dihydro-1,2,4-thiadiazole hydrobromide]
4360	COc1ccc(-c2nc(=Nc3ccccc3)sn2-c2ccccc2)cc1 [R1=pOMePh, R2=Ph, R3=Ph (hydrobromide)]
840	O=[N+]([O-])c1ccc(-n2sc(=NCc3cccnc3)nc2-c2ccccc2)cc1 [2-(4-Nitrophenyl)-3-phenyl-5-(3-pyridinylmethylimino)-2,5-dihydro-1,2,4-thiadiazole dihydrobromide]
1020	N=c1nc(-c2ccccc2)n(-c2ccccc2)s1 [R1=Ph, R2=Ph, R3=H (hydrobromide)]

Same assay, conditions: 1,2,4-thiadiazoles-5-imino substituted as hydrochlorides; read-out: IC50 (PDE7A)

IC50 [nM]	SMILES
3700	CCCCCN=c1nc(-c2ccc(OC)cc2)n(-c2ccccc2)s1 [3-(4-Methoxyphenyl)-5-pentylimino-2-phenyl-2,5-dihydro-1,2,4-thiadiazole hydrochloride]
1500	c1ccc(-n2sc(=NCc3cccnc3)nc2-c2cccc3ccccc23)cc1 [3-(1-Naphthyl)-2-phenyl-5-(3-pyridylmethylimino)-2,5-dihydro-1,2,4-thiadiazole hydrochloride]

Same assay, conditions: free bases; at 10 μM

% inhibition of PDE7A at 10 μM [%@10]	SMILES
6	CCOC(=O)CN=c1nc(-c2ccccc2)n(-c2ccccc2)s1 [R1=Ph, R2=Ph, R3=CH2CO2Et (free base), 5-Ethoxycarboximethylimino-2,3-diphenyl-2,5-dihydro-1,2,4-thiadiazole]

Same assay, conditions: read-out: % inhibition of PDE7A at 10 μM; hydrobromides; at 10 μM

inhibition at 10 µM [%]	SMILES
87	FC(F)(F)c1ccc(-c2nc(=NCc3cccnc3)sn2-c2ccccc2)cc1 [3-(4-Trifluoromethylphenyl)-2-phenyl-5-(3-pyridylmethylimino)-2,5-dihydro-1,2,4-thiadiazole dihydrobromide]
